Measurements as given in publication PMC8550792, “Evolution of kinase polypharmacology across HSP90 drug discovery” (Cell Chemical Biology, 2021).
pIC50, pKd: −log10 of the molar value.

How the values were obtained:
ABL2/ARG = target: T1, ABL2/ARG (Homo sapiens, UniProt P42684); assay: HotSpot in vitro kinase radiometric assay; assay type: biochemical; settings: ABL2/ARG; 10uM; ATP 30 uM; Data 1, Data 2; read-out: % Enzyme Activity (relative to DMSO controls)
T1 construct: purchased Reaction Biology (HotSpot contract assay)

BLK = target: T2, BLK (Homo sapiens, UniProt P51451); assay: HotSpot in vitro kinase radiometric assay; assay type: biochemical; settings: BLK; 10uM; ATP 10 uM; Data 1, Data 2; read-out: % Enzyme Activity (relative to DMSO controls)
T2 construct: purchased Reaction Biology (HotSpot contract assay)
Procedure, shortened: (§1)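 Off-target screen in a radioisotope catalytic assay: test compounds incubated with each kinase, its substrate, cofactors and 33P- or 32P-labelled ɣ-ATP. Filters retaining labelled product gave the signal.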

LYN B = target: T3, LYN B (Homo sapiens, UniProt P07948); assay: HotSpot in vitro kinase radiometric assay; assay type: biochemical; settings: LYN B; 10uM; ATP 20 uM; Data 1, Data 2; read-out: % Enzyme Activity (relative to DMSO controls)
T3 construct: purchased Reaction Biology (HotSpot contract assay)
Procedure, shortened: as §1

c-Src = target: T4, c-Src (Homo sapiens, UniProt P12931); assay: HotSpot in vitro kinase radiometric assay; assay type: biochemical; settings: c-Src; 10uM; ATP 15 uM; Data 1, Data 2; read-out: % Enzyme Activity (relative to DMSO controls)
T4 construct: purchased Reaction Biology (HotSpot contract assay)
Procedure, shortened: as §1

PEAK1 = target: T5, PEAK1 (Homo sapiens, UniProt Q9H792); assay: HotSpot in vitro kinase radiometric assay; assay type: biochemical; settings: PEAK1; 10uM; ATP 30 uM; Data 1, Data 2; read-out: % Enzyme Activity (relative to DMSO controls)
T5 construct: purchased Reaction Biology (HotSpot contract assay)

FGR = target: T6, FGR (Homo sapiens, UniProt P09769); assay: HotSpot in vitro kinase radiometric assay; assay type: biochemical; settings: FGR; 10uM; ATP 50 uM; Data 1, Data 2; read-out: % Enzyme Activity (relative to DMSO controls)
T6 construct: purchased Reaction Biology (HotSpot contract assay)

FYN = target: T7, FYN (Homo sapiens, UniProt P06241); assay: HotSpot in vitro kinase radiometric assay; assay type: biochemical; settings: FYN; 10uM; ATP 30 uM; Data 1, Data 2; read-out: % Enzyme Activity (relative to DMSO controls)
T7 construct: purchased Reaction Biology (HotSpot contract assay)

PASK = target: T8, PASK (Homo sapiens, UniProt Q96RG2); assay: HotSpot in vitro kinase radiometric assay; assay type: biochemical; settings: PASK; 10uM; ATP 50 uM; Data 1, Data 2; read-out: % Enzyme Activity (relative to DMSO controls)
T8 construct: purchased Reaction Biology (HotSpot contract assay)
Text: (§2) Accordingly, we selected five additional representative HSP90 inhibitors, at least one from each chemical class, including both synthetic inhibitors and natural products.
(§3) Accordingly, we screened the hit compound and the two leads for kinase off-target inhibition using the 16-kinase panel and the same in vitro catalytic assay used previously.
(§4) This radioisotope binding assay was designed to directly detect the true product without the use of modified substrates, coupling enzymes, or detection antibodies thus enabling to directly measure inhibition of catalytic activity. Test or control compounds were incubated with kinase, substrate, cofactors, and radioisotope-labeled ATP (32P-ɣ-ATP or 33P-ɣ-ATP). The reaction mixtures were then spotted onto filter papers, which bind the radioisotope-labeled catalytic product.

TRKA = target: T9, TRKA (Homo sapiens, UniProt P04629); assay: HotSpot in vitro kinase radiometric assay; assay type: biochemical; settings: TRKA; 10uM; ATP 100 uM; Data 1, Data 2; read-out: % Enzyme Activity (relative to DMSO controls)
T9 construct: purchased Reaction Biology (HotSpot contract assay)
Text: as §2, §3, §4

TRKC = target: T10, TRKC (Homo sapiens, UniProt Q16288); assay: HotSpot in vitro kinase radiometric assay; assay type: biochemical; settings: TRKC; 10uM; ATP 100 uM; Data 1, Data 2; read-out: % Enzyme Activity (relative to DMSO controls)
T10 construct: purchased Reaction Biology (HotSpot contract assay)

LCK = target: T11, LCK (Homo sapiens, UniProt P06239); assay: HotSpot in vitro kinase radiometric assay; assay type: biochemical; settings: LCK; 10uM; ATP 15 uM; Data 1, Data 2; read-out: % Enzyme Activity (relative to DMSO controls)
T11 construct: purchased Reaction Biology (HotSpot contract assay)

YES/YES1 = target: T12, YES/YES1 (Homo sapiens, UniProt P07947); assay: HotSpot in vitro kinase radiometric assay; assay type: biochemical; settings: YES/YES1; 10uM; ATP 50 uM; Data 1, Data 2; read-out: % Enzyme Activity (relative to DMSO controls)
T12 construct: purchased Reaction Biology (HotSpot contract assay)

16-kinase panel = 16-kinase panel screening, in vitro radiometric assay; assay type: biochemical, human; settings: 10 μM
[1] = target: human 3-methyl-2-oxobutanoate dehydrogenase kinase (BCKDHK); parameters: method as in Besant et al., 2002; settings: ref Besant et al., 2002; cited from earlier work
[2] = target: bacterial sensor kinase PhoQ; parameters: method as in Guarnieri et al., 2008; settings: ref Guarnieri et al., 2008; cited from earlier work
[3] = target: human pyruvate dehydrogenase kinases; parameters: method as in Kato et al., 2007; settings: ref Kato et al., 2007; cited from earlier work
ABL1 = ABL1 (Homo sapiens, UniProt P00519); assay: HotSpot in vitro kinase radiometric assay; assay type: biochemical; parameters: purchased Reaction Biology (HotSpot contract assay); settings: ABL1; 10uM; ATP 40 uM; Data 1, Data 2; read-out: % Enzyme Activity (relative to DMSO controls)
DDR1 = DDR1 (Homo sapiens, UniProt Q08345); assay: HotSpot in vitro kinase radiometric assay; assay type: biochemical; parameters: purchased Reaction Biology (HotSpot contract assay); settings: DDR1; 10uM; ATP 100 uM; Data 1, Data 2; read-out: % Enzyme Activity (relative to DMSO controls)

T10 sequence (Q16288 32-839): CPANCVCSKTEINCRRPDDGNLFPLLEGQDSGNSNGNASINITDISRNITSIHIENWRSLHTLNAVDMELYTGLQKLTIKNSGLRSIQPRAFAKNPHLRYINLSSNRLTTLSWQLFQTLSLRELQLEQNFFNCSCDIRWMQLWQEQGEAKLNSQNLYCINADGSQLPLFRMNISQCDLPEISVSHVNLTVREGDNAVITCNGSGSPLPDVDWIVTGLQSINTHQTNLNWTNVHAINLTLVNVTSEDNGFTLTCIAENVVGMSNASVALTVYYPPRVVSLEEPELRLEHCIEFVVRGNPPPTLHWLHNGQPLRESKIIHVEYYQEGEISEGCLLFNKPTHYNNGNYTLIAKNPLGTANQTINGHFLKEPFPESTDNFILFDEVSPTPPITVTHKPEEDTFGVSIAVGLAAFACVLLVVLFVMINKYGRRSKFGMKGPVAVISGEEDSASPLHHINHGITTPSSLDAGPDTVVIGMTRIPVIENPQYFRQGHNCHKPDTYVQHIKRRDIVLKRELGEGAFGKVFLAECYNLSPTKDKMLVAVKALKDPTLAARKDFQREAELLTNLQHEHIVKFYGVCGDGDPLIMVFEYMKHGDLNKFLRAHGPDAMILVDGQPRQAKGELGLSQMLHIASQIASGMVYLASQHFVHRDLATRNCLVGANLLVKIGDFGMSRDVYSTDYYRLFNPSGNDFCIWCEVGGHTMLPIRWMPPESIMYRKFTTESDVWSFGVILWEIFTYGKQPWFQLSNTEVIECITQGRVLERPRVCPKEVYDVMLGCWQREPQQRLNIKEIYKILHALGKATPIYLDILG
ABL1, sequence (P00519 whole entry): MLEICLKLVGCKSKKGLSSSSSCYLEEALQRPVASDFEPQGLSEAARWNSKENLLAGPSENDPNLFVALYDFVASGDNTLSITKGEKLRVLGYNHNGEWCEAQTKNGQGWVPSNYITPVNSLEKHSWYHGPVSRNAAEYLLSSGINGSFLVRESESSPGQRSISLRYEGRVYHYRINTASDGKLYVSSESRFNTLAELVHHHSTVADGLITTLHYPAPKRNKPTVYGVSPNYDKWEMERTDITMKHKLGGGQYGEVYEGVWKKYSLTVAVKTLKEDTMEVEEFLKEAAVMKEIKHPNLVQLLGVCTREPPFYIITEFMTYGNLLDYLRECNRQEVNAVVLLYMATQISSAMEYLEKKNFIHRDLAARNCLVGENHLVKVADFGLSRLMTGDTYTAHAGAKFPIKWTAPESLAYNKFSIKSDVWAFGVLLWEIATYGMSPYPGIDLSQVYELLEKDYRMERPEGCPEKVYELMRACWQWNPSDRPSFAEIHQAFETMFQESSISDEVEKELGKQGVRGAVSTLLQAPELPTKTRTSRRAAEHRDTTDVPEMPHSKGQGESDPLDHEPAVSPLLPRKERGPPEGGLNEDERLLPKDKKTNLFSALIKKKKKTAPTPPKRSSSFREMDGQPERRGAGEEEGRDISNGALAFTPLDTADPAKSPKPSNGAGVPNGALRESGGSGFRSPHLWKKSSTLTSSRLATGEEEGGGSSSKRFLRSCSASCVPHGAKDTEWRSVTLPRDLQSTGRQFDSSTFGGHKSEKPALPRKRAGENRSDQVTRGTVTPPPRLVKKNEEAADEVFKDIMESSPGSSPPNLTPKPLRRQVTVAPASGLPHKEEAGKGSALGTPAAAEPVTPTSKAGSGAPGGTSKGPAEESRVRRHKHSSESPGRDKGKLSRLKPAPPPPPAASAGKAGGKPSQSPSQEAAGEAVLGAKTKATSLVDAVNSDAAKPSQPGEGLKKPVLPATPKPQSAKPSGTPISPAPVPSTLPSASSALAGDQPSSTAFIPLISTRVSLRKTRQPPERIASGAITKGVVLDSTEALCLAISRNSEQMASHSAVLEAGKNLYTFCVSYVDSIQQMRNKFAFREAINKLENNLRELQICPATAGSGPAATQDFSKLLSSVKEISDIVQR
T7 sequence (P06241 whole entry): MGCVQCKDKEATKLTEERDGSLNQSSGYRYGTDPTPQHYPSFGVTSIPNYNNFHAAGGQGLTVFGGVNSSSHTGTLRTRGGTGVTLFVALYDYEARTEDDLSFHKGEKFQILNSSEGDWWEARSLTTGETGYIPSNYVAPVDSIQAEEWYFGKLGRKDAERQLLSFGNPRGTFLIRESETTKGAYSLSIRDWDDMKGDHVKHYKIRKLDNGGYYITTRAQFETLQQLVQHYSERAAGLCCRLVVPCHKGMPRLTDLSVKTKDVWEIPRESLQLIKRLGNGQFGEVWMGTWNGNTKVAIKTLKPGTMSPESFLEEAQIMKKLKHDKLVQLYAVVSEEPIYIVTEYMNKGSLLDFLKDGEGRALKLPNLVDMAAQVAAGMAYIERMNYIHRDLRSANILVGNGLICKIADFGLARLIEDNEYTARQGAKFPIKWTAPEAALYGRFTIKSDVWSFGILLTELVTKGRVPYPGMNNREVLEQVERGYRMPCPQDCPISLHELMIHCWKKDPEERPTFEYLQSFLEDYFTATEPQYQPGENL
T8 sequence (Q96RG2 whole entry): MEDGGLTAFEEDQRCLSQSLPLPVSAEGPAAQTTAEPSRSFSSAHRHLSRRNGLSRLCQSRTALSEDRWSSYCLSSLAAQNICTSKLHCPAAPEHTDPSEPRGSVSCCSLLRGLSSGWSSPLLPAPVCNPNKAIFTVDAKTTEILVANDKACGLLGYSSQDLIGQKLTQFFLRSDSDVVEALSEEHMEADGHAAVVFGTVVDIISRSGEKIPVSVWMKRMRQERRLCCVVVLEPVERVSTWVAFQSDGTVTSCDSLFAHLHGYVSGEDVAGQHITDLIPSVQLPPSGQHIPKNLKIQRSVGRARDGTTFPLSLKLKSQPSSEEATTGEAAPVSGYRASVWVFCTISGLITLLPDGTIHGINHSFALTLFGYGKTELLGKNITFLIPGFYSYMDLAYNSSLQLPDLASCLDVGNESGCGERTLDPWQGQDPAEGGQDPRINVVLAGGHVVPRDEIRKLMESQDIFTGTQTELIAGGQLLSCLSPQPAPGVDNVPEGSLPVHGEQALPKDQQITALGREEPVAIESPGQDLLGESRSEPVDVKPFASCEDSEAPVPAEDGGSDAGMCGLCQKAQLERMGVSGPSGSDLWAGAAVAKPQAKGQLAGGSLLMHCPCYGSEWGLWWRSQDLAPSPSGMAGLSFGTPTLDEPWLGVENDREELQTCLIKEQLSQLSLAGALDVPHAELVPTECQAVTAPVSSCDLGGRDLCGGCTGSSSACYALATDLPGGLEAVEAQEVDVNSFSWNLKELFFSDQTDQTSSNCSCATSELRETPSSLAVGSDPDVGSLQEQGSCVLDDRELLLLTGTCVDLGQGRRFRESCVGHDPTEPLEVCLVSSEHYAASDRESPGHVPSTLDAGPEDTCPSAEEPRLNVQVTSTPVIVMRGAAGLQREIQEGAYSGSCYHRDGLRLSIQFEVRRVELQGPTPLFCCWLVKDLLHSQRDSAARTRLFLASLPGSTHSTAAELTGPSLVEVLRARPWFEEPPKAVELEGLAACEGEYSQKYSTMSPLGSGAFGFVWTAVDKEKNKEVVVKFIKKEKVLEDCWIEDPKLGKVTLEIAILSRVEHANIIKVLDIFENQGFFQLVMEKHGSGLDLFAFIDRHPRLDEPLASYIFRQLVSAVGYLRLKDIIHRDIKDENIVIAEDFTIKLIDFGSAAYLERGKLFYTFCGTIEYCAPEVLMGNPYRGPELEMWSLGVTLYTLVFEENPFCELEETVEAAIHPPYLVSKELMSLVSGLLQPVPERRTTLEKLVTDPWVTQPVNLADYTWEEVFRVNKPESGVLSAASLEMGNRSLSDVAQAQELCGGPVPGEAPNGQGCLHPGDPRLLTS
T1 sequence (P42684 whole entry): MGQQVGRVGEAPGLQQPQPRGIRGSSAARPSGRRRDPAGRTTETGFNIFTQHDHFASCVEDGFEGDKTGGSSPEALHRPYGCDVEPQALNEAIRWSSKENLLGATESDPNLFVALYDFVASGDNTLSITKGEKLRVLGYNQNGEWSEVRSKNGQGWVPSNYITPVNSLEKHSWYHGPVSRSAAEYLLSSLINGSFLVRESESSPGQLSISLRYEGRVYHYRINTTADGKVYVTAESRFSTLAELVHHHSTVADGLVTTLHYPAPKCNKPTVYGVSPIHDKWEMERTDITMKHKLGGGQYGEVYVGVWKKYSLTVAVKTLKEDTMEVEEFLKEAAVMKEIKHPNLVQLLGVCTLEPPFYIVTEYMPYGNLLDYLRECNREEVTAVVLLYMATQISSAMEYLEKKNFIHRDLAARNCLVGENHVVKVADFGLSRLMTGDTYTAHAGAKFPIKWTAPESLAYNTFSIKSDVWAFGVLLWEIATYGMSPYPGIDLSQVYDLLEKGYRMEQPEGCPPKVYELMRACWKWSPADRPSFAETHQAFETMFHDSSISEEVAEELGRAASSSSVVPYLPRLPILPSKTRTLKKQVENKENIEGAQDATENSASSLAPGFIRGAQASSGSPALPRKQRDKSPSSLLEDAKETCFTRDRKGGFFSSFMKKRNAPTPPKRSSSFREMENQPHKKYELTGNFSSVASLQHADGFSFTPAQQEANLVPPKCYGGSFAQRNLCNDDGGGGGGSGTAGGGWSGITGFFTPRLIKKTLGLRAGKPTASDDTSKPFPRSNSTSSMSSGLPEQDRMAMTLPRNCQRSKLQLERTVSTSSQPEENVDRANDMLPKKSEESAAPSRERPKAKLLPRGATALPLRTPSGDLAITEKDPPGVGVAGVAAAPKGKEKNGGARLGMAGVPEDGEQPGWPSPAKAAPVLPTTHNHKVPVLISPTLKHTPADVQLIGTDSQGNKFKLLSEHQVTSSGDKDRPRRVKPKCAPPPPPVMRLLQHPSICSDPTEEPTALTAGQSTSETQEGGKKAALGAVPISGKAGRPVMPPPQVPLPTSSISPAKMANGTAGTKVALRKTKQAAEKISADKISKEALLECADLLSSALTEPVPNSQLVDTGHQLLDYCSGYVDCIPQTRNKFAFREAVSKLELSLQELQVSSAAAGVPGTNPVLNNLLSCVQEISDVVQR

## C[C@@H]1C[C@H]2O[C@@H]2/C=C\C=C\C(=O)Cc2c(Cl)c(O)cc(O)c2C(=O)O1 [Radicicol]
ABL2/ARG
  remaining activity at 10 µM: 117%
BLK
  remaining activity at 10 µM: 104%
LYN B
  remaining activity at 10 µM: 114%
c-Src
  remaining activity at 10 µM: 96.8%
PEAK1
  remaining activity at 10 µM: 104%
FGR
  remaining activity at 10 µM: 112%
FYN
  remaining activity at 10 µM: 110%
PASK
  remaining activity at 10 µM: 94.4%
TRKA
  remaining activity at 10 µM: 106%
TRKC
  remaining activity at 10 µM: 98.6%
LCK
  remaining activity at 10 µM: 119%
YES/YES1
  remaining activity at 10 µM: 103%
16-kinase panel
  activity against the 16-kinase panel: inactive
[1]
  pIC50: 6.20
[2]
  pKd: 3.15
[3]
  pIC50: 3.40 to 3.64
ABL1
  remaining activity at 10 µM: 106%
DDR1
  remaining activity at 10 µM: 105%
